Data: ChEMBL document CHEMBL4359905, “Discovery, structural insight, and bioactivities of BY27 as a selective inhibitor of the second bromodomains of BET proteins” (Eur J Med Chem, 2019)

Assays:
[1] = target: T1, Bromodomain-containing protein 4 (Homo sapiens, UniProt O60885); assay: Binding affinity to human partial length BRD4 BD2 isoform long (K333 to E460 residues) expressed in bacterial expression system by bromoscan assay
[2] = target: T1, Bromodomain-containing protein 4; assay: Binding affinity to human partial length BRD4 BD1 isoform long (N44 to E168 residues) expressed in bacterial expression system by bromoscan assay
[3] = tested on: MV4-11; assay: Antitumour activity against human MV4-11 cells xenografted in BALB/c nu/nu mouse assessed as tumour growth inhibition administered via oral gavage once daily for 21 days and measured every 2 to 3 days by vernier caliper method; assay type: functional, cell-based
[4] = target: T2, Bromodomain testis-specific protein (Homo sapiens, UniProt Q58F21); assay: Binding affinity to human partial length BRDT bromodomain 2 isoform b (K250 to E382 residues) expressed in bacterial expression system by bromoscan assay
[5] = tested on: MV4-11; assay: Antitumour activity against human MV4-11 cells xenografted in BALB/c nu/nu mouse assessed as upregulation of p21 expression level in tumor tissue at 150 mg/kg, po administered via gavage as a single dose measured after 6 hrs by western blot analysis; assay type: functional
[6] = target: T3, Bromodomain-containing protein 2 (Homo sapiens, UniProt P25440); assay: Binding affinity to human recombinant BRD2 BD1 (72 to 205 residues) by fluorescence polarization assay
Target sequence in this assay (P25440 whole entry, the tested form may be a part, canonical isoform): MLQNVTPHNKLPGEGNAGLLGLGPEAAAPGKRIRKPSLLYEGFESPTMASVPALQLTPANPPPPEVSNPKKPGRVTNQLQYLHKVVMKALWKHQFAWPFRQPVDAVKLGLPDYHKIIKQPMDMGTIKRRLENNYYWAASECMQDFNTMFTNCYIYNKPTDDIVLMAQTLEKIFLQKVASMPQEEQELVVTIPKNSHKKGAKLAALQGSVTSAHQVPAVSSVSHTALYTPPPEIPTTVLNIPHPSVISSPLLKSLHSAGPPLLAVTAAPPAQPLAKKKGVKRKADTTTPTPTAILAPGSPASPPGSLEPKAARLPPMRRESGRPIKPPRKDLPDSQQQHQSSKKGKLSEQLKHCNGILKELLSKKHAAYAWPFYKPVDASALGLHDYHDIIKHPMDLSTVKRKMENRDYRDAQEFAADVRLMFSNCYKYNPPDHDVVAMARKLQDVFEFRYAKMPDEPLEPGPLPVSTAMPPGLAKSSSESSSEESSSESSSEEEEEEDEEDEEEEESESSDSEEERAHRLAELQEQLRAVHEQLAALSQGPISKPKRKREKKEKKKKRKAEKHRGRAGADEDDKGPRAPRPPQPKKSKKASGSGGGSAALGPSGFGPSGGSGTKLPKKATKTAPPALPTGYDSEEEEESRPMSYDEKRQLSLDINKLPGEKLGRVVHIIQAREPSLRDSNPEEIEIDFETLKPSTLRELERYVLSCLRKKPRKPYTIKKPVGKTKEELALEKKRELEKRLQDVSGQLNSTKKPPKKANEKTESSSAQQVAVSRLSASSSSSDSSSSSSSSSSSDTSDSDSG

[7] = target: T1, Bromodomain-containing protein 4; assay: Selectivity ratio of Kd for human partial length BRD4 BD1 isoform long (N44 to E168 residues) expressed in bacterial expression system to Kd for human partial length BRD4 BD2 isoform long (K333 to E460 residues) expressed in bacterial expression system
[8] = target: T1, Bromodomain-containing protein 4; assay: Binding affinity to human recombinant BRD4 BD1 (44 to 168 residues) by fluorescence polarization assay
[9] = target: T2, Bromodomain testis-specific protein; assay: Binding affinity to human partial length BRDT bromodomain 1 isoform b (N21 to E137 residues) expressed in bacterial expression system by bromoscan assay
[10] = tested on: MV4-11; assay: Upregulation of p21 mRNA expression in human MV4-11 cells after 24 hrs by qRT-PCR analysis; assay type: functional, cell-based
[11] = Clearance in ICR mouse at 5 mg/kg, iv measured upto 24 hrs by LC-MS/MS analysis; assay type: ADME, organism-based; conditions: in vivo
[12] = Toxicity in BALB/c nu/nu mouse xenografted with human MV4-11 cells assessed as decrease in body weight at 150 mg/kg, po via gavage once daily for 21 days and measured every 2 to 3 days relative to control; assay type: organism-based; set-up: scale not given: the % may be the effect or the level left; conditions: in vivo
[13] = AUC (0 to t) in ICR mouse at 15 mg/kg, po measured upto 24 hrs by LC-MS/MS analysis; assay type: ADME, organism-based; set-up: time < 24 hr, dose 15 mg/kg, route oral; conditions: in vivo
[14] = tested on: MV4-11; assay: Antitumour activity against human MV4-11 cells xenografted in BALB/c nu/nu mouse assessed as tumour growth inhibition at 150 mg/kg, po via gavage administered once daily for 21 days and measured every 2 to 3 days by vernier caliper method relative to control; assay type: functional; conditions: MV4-11, po, read-out: GI
[15] = target: T4, Bromodomain-containing protein 3 (Homo sapiens, UniProt Q15059); assay: Selectivity index, ratio of Ki for human recombinant BRD3 BD1 (24 to 144 residues) to Ki for human recombinant BRD3 BD2 (306 to 417 residues)
Target sequence in this assay (Q15059 2-726 limits assumed): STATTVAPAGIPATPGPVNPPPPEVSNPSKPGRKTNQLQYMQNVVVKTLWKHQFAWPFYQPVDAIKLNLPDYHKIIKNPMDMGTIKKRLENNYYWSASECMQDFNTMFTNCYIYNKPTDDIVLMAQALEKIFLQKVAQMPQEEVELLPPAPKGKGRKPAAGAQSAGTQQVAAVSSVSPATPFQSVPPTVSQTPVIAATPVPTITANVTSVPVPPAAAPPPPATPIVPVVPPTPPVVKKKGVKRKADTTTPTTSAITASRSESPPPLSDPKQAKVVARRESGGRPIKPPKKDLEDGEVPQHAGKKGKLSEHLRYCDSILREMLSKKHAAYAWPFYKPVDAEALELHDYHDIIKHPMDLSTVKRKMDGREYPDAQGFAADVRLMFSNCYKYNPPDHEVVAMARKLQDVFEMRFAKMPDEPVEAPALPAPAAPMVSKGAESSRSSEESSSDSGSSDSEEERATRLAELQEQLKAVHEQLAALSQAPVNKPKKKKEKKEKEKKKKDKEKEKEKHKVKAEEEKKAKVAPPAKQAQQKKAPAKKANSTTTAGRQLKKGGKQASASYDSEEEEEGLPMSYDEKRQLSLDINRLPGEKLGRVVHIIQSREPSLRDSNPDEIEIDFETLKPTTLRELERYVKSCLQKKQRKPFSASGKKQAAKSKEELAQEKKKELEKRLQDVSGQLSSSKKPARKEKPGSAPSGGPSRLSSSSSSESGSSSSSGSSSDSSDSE

[16] = target: T4, Bromodomain-containing protein 3; assay: Binding affinity to human partial length BRD3 BD2 (G306 to P416 residues) expressed in bacterial expression system by bromoscan assay
Target sequence in this assay (Q15059 whole entry, the tested form may be a part): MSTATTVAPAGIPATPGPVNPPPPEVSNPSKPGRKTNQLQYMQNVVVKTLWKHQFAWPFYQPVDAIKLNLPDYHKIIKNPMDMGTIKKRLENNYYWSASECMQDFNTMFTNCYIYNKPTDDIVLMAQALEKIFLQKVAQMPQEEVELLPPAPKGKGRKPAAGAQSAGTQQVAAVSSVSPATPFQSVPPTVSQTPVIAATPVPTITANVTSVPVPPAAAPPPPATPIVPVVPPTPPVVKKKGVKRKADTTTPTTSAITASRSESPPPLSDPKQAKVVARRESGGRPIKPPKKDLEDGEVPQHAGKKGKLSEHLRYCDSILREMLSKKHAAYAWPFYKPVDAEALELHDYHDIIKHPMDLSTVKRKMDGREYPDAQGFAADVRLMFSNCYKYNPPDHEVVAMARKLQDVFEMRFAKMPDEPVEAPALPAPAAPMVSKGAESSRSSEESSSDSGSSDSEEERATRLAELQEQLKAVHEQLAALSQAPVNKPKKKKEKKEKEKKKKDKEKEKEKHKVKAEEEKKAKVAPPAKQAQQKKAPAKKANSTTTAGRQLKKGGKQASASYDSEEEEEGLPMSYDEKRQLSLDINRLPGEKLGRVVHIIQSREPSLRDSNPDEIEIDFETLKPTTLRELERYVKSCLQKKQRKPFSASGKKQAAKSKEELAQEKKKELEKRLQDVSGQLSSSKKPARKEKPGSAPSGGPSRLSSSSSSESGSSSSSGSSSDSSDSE

[17] = target: T4, Bromodomain-containing protein 3; assay: Selectivity ratio of Kd for human partial length BRD3 BD1 (P24 to E144 residues) expressed in bacterial expression system to Kd for human partial length BRD3 BD2 (G306 to P416 residues) expressed in bacterial expression system
Target sequence in this assay (Q15059 2-726 limits assumed): as the sequence (Q15059 2-726 limits assumed) above

[18] = tested on: MV4-11; assay: Antitumour activity against human MV4-11 cells xenografted in BALB/c nu/nu mouse assessed as tumour growth inhibition at 60 mg/kg, po via gavage administered once daily for 21 days and measured every 2 to 3 days by vernier caliper method relative to control; assay type: functional; conditions: MV4-11, po, read-out: GI
[19] = target: T3, Bromodomain-containing protein 2; assay: Selectivity ratio of Kd for human partial length BRD2 BD1 isoform 1 (K71 to N194 residues) expressed in bacterial expression system to Kd for human partial length BRD2 BD2 isoform 1 (E348 to D455 residues) expressed in bacterial expression system
Target sequence in this assay (P25440 whole entry, looked up, the tested form may be a part, canonical isoform): as the sequence (P25440 whole entry, the tested form may be a part, canonical isoform) above

[20] = tested on: HepG2; assay: Downregulation of G6PC in human HepG2 cells after 4 hrs by qRT-PCR analysis; assay type: functional, cell-based
[21] = target: T4, Bromodomain-containing protein 3; assay: Binding affinity to human partial length BRD3 BD1 (P24 to E144 residues) expressed in bacterial expression system by bromoscan assay
Target sequence in this assay (Q15059 whole entry, the tested form may be a part): as the sequence (Q15059 whole entry, the tested form may be a part) above

[22] = Volume of distribution at steady state in ICR mouse at 5 mg/kg, iv measured upto 24 hrs by LC-MS/MS analysis; assay type: ADME, organism-based; conditions: in vivo, read-out: Vdss
[23] = target: T4, Bromodomain-containing protein 3; assay: Binding affinity to human recombinant BRD3 BD2 (306 to 417 residues) by fluorescence polarization assay
Target sequence in this assay (Q15059 whole entry, the tested form may be a part): as above

[24] = target: T3, Bromodomain-containing protein 2; assay: Binding affinity to human recombinant BRD2 BD2 (349 to 460 residues) by fluorescence polarization assay
Target sequence in this assay (P25440 whole entry, the tested form may be a part, canonical isoform): as the sequence (P25440 whole entry, the tested form may be a part, canonical isoform) above

[25] = tested on: MV4-11; assay: Antitumour activity against human MV4-11 cells xenografted in BALB/c nu/nu mouse assessed as downregulation of c-Myc expression level in tumor tissue at 150 mg/kg, po administered via gavage as a single dose measured after 6 hrs by western blot analysis; assay type: functional; conditions: MV4-11, po
[26] = tested on: MV4-11; assay: Downregulation of p21 expression level in tumor tissue in BALB/c nu/nu mouse xenografted with human MV4-11 cells at 150 mg/kg, po administered via gavage as a single dose measured after 24 hrs by western blot analysis; assay type: functional; conditions: MV4-11, po
[27] = tested on: MV4-11; assay: Antitumour activity against human MV4-11 cells xenografted in BALB/c nu/nu mouse assessed as tumour growth inhibition at 100 mg/kg, po via gavage administered once daily for 21 days and measured every 2 to 3 days by vernier caliper method relative to control; assay type: functional; conditions: MV4-11, po, read-out: GI
[28] = tested on: HepG2; assay: Downregulation of ARID5B in human HepG2 cells after 4 hrs by qRT-PCR analysis; assay type: functional, cell-based
[29] = tested on: MV4-11; assay: Antitumour activity against human MV4-11 cells xenografted in BALB/c nu/nu mouse assessed as downregulation of c-Myc expression level in tumor tissue at 150 mg/kg, po administered via gavage as a single dose measured after 24 hrs by western blot analysis; assay type: functional; conditions: MV4-11, po
[30] = Oral bioavailability in ICR mouse at 15 mg/kg measured upto 24 hrs by LC-MS/MS analysis; assay type: ADME, organism-based; conditions: in vivo
[31] = tested on: MV4-11; assay: Decrease in c-Myc protein expression in human MV4-11 cells incubated for 24 hrs by western blot analysis; assay type: functional, cell-based
[32] = target: T2, Bromodomain testis-specific protein; assay: Selectivity ratio Kd for human partial length BRDT bromodomain 1 isoform b (N21 to E137 residues) expressed in bacterial expression system to Kd for human partial length BRDT bromodomain 2 isoform b (K250 to E382 residues) expressed in bacterial expression system
[33] = target: T1, Bromodomain-containing protein 4; assay: Binding affinity to human recombinant BRD4 BD2 (333 to 460 residues) by fluorescence polarization assay
[34] = tested on: MV4-11; assay: Downregulation of cMyc mRNA expression in human MV4-11 cells after 24 hrs by qRT-PCR analysis; assay type: functional, cell-based
[35] = target: T3, Bromodomain-containing protein 2; assay: Binding affinity to human partial length BRD2 BD2 isoform 1 (E348 to D455 residues) expressed in bacterial expression system by bromoscan assay
Target sequence in this assay (P25440 whole entry, the tested form may be a part, canonical isoform): as above

[36] = tested on: MM1.S; assay: Antiproliferative activity against human MM1S cells assessed as cell growth inhibition after 4 days by CCK8 assay; assay type: functional, cell-based; conditions: 96 h
[37] = Cmax in ICR mouse at 5 mg/kg, iv measured upto 24 hrs by LC-MS/MS analysis; assay type: ADME, organism-based; set-up: dose 5 mg/kg, route intravenous; conditions: in vivo
[38] = target: T3, Bromodomain-containing protein 2; assay: Binding affinity to human partial length BRD2 BD1 isoform 1 (K71 to N194 residues) expressed in bacterial expression system by bromoscan assay
Target sequence in this assay (P25440 whole entry, the tested form may be a part, canonical isoform): as above

[39] = target: T4, Bromodomain-containing protein 3; assay: Binding affinity to human recombinant BRD3 BD1 (24 to 144 residues) by fluorescence polarization assay
Target sequence in this assay (Q15059 whole entry, the tested form may be a part): as the sequence (Q15059 whole entry, the tested form may be a part) above

[40] = tested on: HepG2; assay: Downregulation of […] in human HepG2 cells after 4 hrs by qRT-PCR analysis; assay type: functional, cell-based
[41] = Cmax in ICR mouse at 15 mg/kg, po measured upto 24 hrs by LC-MS/MS analysis; assay type: ADME, organism-based; set-up: dose 15 mg/kg, route oral; conditions: in vivo
[42] = tested on: MV4-11; assay: Increase in p21 protein expression in human MV4-11 cells incubated for 24 hrs by western blot analysis; assay type: functional, cell-based
[43] = tested on: MV4-11; assay: Antiproliferative activity against human MV4-11 cells assessed as cell growth inhibition after 4 days by CCK8 assay; assay type: functional, cell-based; conditions: MV4-11, 96 h
[44] = Half-life in ICR mouse at 15 mg/kg, po measured upto 24 hrs by LC-MS/MS analysis; assay type: ADME, organism-based; conditions: in vivo
[45] = Half-life in ICR mouse at 5 mg/kg, iv measured upto 24 hrs by LC-MS/MS analysis; assay type: ADME, organism-based; conditions: in vivo
[46] = AUC (0 to t) in ICR mouse at 5 mg/kg, iv measured upto 24 hrs by LC-MS/MS analysis; assay type: ADME, organism-based; set-up: dose 5 mg/kg, time < 24 hr, route intravenous; conditions: in vivo
[47] = Toxicity in BALB/c nu/nu mouse xenografted with human MV4-11 cells assessed as decrease in body weight at 60 mg/kg, po via gavage once daily for 6 days and measured every 2 to 3 days relative to control; assay type: organism-based; set-up: scale not given: the % may be the effect or the level left; conditions: in vivo

## Cc1nnc2n1-c1ccc(-c3cnn(C)c3)cc1[C@H](Nc1ccc(Cl)cc1)CC2
[1]
  Kd: 3.5 nM
[2]
  Kd: 26 nM
[3]
  inhibition: Dose-dependent effect
[4]
  Kd: 3 nM
[5]
  Activity: 46%
[6]
  Ki: 95.5 nM
[7]
  Selectivity ratio: 7
[8]
  Ki: 80 nM
[9]
  Kd: 64 nM
[10]
  Activity: Dose-dependent effect
[11]
  clearance: 25 mL/min/kg
[12]
  Activity: 7%
[13]
  AUC(0-t) at 24 h: 5890 ng·h/mL
[14]
  inhibition in vivo at 150 mg/kg: 67%
[15]
  Ratio Ki: 15
[16]
  Kd: 2.6 nM
[17]
  Selectivity ratio: 5
[18]
  inhibition in vivo at 60 mg/kg: 47%
[19]
  Selectivity ratio: 38
[20]
  inhibition: Dose-dependent effect
[21]
  Kd: 12 nM
[22]
  Vd: 0.94 L/kg
[23]
  Ki: 5.3 nM
[24]
  Ki: 3.1 nM
[25]
  inhibition in vivo at 150 mg/kg: 30%
[26]
  inhibition in vivo at 150 mg/kg: 18%
[27]
  inhibition in vivo at 100 mg/kg: 58%
[28]
  inhibition: Dose-dependent effect
[29]
  inhibition in vivo at 150 mg/kg: 43%
[30]
  bioavailability: 59.1%
[31]
  inhibition: Dose-dependent effect
[32]
  Selectivity ratio: 21
[33]
  Ki: 7.3 nM
[34]
  inhibition: Dose-dependent effect
[35]
  Kd: 1.2 nM
[36]
  IC50: 16.7 nM
[37]
  Cmax: 5420 ng/mL
[38]
  Kd: 45 nM
[39]
  Ki: 77.9 nM
[40]
  inhibition: Dose-dependent effect
[41]
  Cmax: 2210 ng/mL
[42]
  Activity: Dose-dependent effect
[43]
  IC50: 27 nM
[44]
  half-life: 57 min
[45]
  half-life: 34.8 min
[46]
  AUC(0-t) at 24 h: 3320 ng·h/mL

## CCNC(=O)C[C@@H]1N=C(c2ccc(Cl)cc2)c2cc(OC)ccc2-n2c(C)nnc21 [MOLIBRESIB]
[47]
  Activity: 11%
